For 34 molecules, RP-LC retention time results are on record in the METLIN SMRT retention time set (Domingo-Almenara et al. 2019).

The structures appear in SMILES notation.

This series is described as follows: gradient 5% acetonitrile 3 min, to 50% in 2 min, to 85% in 15 min, held 3 min, 100 µL/min. Particulars: column: Zorbax Extend-C18 2.1 x 50 mm; eluents: water / acetonitrile, 0.1% formic acid. The method, boiled down:
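Values are retention times taken from adduct peaks that software picked and an analyst inspected. The pure standards were run as mixtures of ~100 molecules on HPLC linked to a quadrupole time-of-flight mass spectrometer, in positive and negative ionization mode. A Zorbax Extend-C18 column (2.1 × 50 mm, 1.8 μm) was used at 100 μL/min with water and acetonitrile, each including 0.1% formic acid.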
Turning to `CCOC(=O)c1c(S(=O)(=O)N2CCC(C(=O)Nc3nccs3)CC2)c(C)n(C)c1C`, the RP-LC retention time is 740 s. As to `O=C(NCC1CCOCC1)Nc1cc(F)cc(F)c1`, the RP-LC retention time was determined as 703 s. For the molecule `O=C(OCc1nc2ccccc2s1)c1ccc([N+](=O)[O-])o1`, the RP-LC retention time came out at 848 s. Turning to `Cc1cc(=O)n(CC(=O)Nc2cccc(C)c2C)c(N(C)Cc2ccccc2)n1`, the RP-LC retention time turned out to be 794 s. To `COc1ncc(C(=O)Nc2cc(C)ccc2F)c(C)n1` belongs 756 s.

Turning to `Cc1ccc(CNC(=O)C2=CCN(Cc3ccccc3)CC2)o1`, the RP-LC retention time was found to be 601 s. To `COc1ccc(C2(C)NC(=O)N(CC(=O)N3CCc4ccccc43)C2=O)cc1` (centres undefined) belongs 750 s. Turning to `CN(CCc1noc(COc2ccc(F)cc2)n1)C(=O)Nc1ccc(F)c(Cl)c1`, the RP-LC retention time was found to be 953 s.

The molecule `Cc1cc(N2CCC(NC(=O)Nc3ccccc3C(F)(F)F)C2=O)ccc1F` (centres undefined) registered an RP-LC retention time of 915 s. In turn, `CCN(CC)C(=O)N[C@@H]1C[C@@H]2c3cccc4[nH]cc(c34)C[C@H]2N(C)C1` showed an RP-LC retention time of 684 s. The value for `O=C(NCc1ccc(Br)cc1)c1cn2ccccc2n1` was 726 s; that for `CCc1nc(-c2c(C)cc(C)nc2NC(=O)c2ccc(F)cc2)no1` was 812 s. As to `CCc1cccc(NC(=O)c2cc3sccc3n2Cc2ccc(F)cc2)c1`, the RP-LC retention time is 1260 s.

As to `Cc1cc(C)cc(C(=O)N2CCC(COc3ccc(C(=O)NC4CC4)cc3)CC2)c1`, the RP-LC retention time was found to be 887 s. `O=C(Nc1ccc2ncnc(N3CCCCC3)c2c1)c1cncc(Br)c1` registered an RP-LC retention time of 665 s.

On to `Cc1ccc(CNC(=O)CCNc2c(-c3ccc(F)cc3)nc3cnccn23)o1`, for which the RP-LC retention time stood at 694 s. The value for `CCCC(=O)NCCc1c(I)[nH]c2ccc(OC)cc12` was 849 s; that for `C=CCNC(=O)c1cc(=O)[nH]c2c(Cl)cccc12` was 641 s; that for `CCC(C)NC(=O)CCc1c(-c2ccc(Br)cc2)nc2ccccn12` (centres undefined) was 657 s. With `Cc1ccc2sc(N(Cc3ccccn3)C(=O)C3COc4ccccc4O3)nc2c1C` (centres undefined), the RP-LC retention time was found to be 1250 s.

In turn, `Cc1cc(C)nc(SCCCNC(=O)Nc2cc(C)on2)n1` yielded an RP-LC retention time of 663 s. For `COc1ccc(CNC(=O)c2nnc(-c3ccc(S(=O)(=O)N4CCOCC4)cc3)o2)cc1`, the RP-LC retention time came to 829 s. Take `O=C(c1ccccc1)N1CCc2cc(CNS(=O)(=O)c3ccccc3)ccc21`: the RP-LC retention time worked out at 819 s.

In turn, `CC1(C)C(=O)NCCN1C(=O)c1cccc(Cl)c1` came in with an RP-LC retention time of 637 s.

In the case of `COC(=O)c1c2c(nc3ccccc13)CCN(C(=O)Nc1cc(OC)ccc1OC)C2`, the RP-LC retention time was found to be 839 s. The molecule `COC(=O)c1ccccc1NC(=O)Cn1c(=O)c(CCC(=O)NCC(C)C)nc2ccccc21` yielded an RP-LC retention time of 878 s. Turning to `CCC(=O)Nc1c(C)noc1/C=C/c1ccc(S(=O)(=O)Nc2ccc(S(N)(=O)=O)cc2)s1`, the RP-LC retention time amounted to 719 s. The value for `O=C(Cn1c(=O)c2cccn2c2ccc(F)cc21)NCCN1CCOCC1` was 592 s; that for `Cc1nnc(-c2ccc3ccn(CC(=O)NCCc4ccc(Cl)cc4)c3c2)o1` was 824 s; that for `Cn1cccc1C(=O)C(=O)Nc1cccc(Br)c1` was 1040 s. Take `CCc1noc(-c2ccnc(-n3ncc(C(=O)NC4CCCC4)c3C)c2)n1`: the RP-LC retention time was 687 s. To `Cc1csc(-c2cc(S(=O)(=O)NCc3ccco3)c(C)n2C)n1` belongs 864 s. For `O=C(O)C1CCN(S(=O)(=O)c2ccc(Cl)c(-c3nnc(-c4ccccc4)o3)c2)CC1`, the RP-LC retention time worked out at 887 s. `COc1ccc(CNC(=O)N2CC=C(c3cn(C)c4ncccc34)CC2)cc1`: the RP-LC retention time is 752 s.
